# Results published in ChEMBL document CHEMBL3217756, “Biological and computational evaluation of an oxadiazole derivative (MD77) as a new lead for direct STAT3 inhibitors” (Medchemcomm, 2012).
# How the values were obtained:
# [1] = biological target: Signal transducer and activator of transcription 3 (Homo sapiens, UniProt P40763); test: Inhibition of SH2 domain of STAT3 (unknown origin) using (FITC)-GpYLPQTV as substrate at 30 uM preincubated for 15 mins before substrate addition measured after 90 mins by alphascreen based assay
# Signal transducer and activator of transcription 3, sequence (P40763 whole entry, the tested form may be a part): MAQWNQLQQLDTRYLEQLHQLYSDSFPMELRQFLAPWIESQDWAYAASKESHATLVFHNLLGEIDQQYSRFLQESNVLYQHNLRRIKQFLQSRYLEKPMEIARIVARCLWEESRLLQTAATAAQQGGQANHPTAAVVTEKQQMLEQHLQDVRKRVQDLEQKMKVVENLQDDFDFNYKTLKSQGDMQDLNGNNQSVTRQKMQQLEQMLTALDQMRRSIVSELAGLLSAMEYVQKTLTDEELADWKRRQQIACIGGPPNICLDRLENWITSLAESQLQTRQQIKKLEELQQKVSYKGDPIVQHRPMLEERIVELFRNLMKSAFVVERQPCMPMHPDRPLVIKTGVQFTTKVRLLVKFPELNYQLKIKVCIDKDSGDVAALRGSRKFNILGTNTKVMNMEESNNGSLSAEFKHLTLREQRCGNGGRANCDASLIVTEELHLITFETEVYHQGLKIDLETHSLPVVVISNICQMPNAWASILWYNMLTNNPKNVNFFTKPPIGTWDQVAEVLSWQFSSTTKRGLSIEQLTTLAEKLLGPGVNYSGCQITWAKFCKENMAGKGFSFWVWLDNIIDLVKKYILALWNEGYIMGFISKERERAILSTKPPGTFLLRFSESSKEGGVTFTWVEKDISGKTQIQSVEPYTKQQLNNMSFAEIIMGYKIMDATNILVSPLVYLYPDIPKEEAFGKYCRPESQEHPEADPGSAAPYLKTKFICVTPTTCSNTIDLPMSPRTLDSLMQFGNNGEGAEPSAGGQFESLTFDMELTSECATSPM
# [2] = biological target: Growth factor receptor-bound protein 2 (Homo sapiens, UniProt P62993); test: Inhibition of SH2 domain of GRB2 (unknown origin) using FITC-PSpYVNVQN as substrate at 30 uM preincubated for 15 mins before substrate addition measured after 90 mins by alphascreen based assay
# Growth factor receptor-bound protein 2, sequence (P62993 whole entry, looked up, the tested form may be a part): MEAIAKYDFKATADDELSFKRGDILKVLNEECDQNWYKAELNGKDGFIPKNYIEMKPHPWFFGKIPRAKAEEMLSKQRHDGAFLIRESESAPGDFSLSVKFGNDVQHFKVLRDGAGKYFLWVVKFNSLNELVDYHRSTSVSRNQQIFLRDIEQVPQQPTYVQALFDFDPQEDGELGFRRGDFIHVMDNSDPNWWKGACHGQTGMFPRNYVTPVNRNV
# [3] = tested on: MOLT-4; test: Cytotoxicity against human MOLT4 cells after 48 hrs by sulforhodamine B assay; assay type: functional; settings: MOLT-4, 48 h
# [4] = tested on: SR; test: Cytotoxicity against human SR cells after 48 hrs by sulforhodamine B assay; assay type: functional
# [5] = tested on: A549; test: Cytotoxicity against human A549 cells after 48 hrs by sulforhodamine B assay; assay type: functional; settings: A549, 48 h
# [6] = Cytotoxicity against human EKVX cells after 48 hrs by sulforhodamine B assay; assay type: functional
# [7] = tested on: HOP-62; test: Cytotoxicity against human HOP62 cells after 48 hrs by sulforhodamine B assay; assay type: functional; settings: HOP-62, 48 h
# [8] = tested on: HOP-92; test: Cytotoxicity against human HOP92 cells after 48 hrs by sulforhodamine B assay; assay type: functional; settings: HOP-92, 48 h
# [9] = tested on: NCI-H322M; test: Cytotoxicity against human NCI-H322M cells after 48 hrs by sulforhodamine B assay; assay type: functional
# [10] = tested on: HCT-116; test: Cytotoxicity against human HCT116 cells after 48 hrs by sulforhodamine B assay; assay type: functional; settings: HCT-116, 48 h
# [11] = tested on: SNB-19; test: Cytotoxicity against human SNB19 cells after 48 hrs by sulforhodamine B assay; assay type: functional; settings: SNB-19, 48 h
# [12] = tested on: U-251; test: Cytotoxicity against human U251 cells after 48 hrs by sulforhodamine B assay; assay type: functional; settings: U-251, 48 h
# [13] = tested on: LOX IMVI; test: Cytotoxicity against human LOXIMVI cells after 48 hrs by sulforhodamine B assay; assay type: functional
# [14] = tested on: M14; test: Cytotoxicity against human M14 cells after 48 hrs by sulforhodamine B assay; assay type: functional; settings: M14, 48 h
# [15] = Cytotoxicity against human UACC257 cells after 48 hrs by sulforhodamine B assay; assay type: functional; settings: UACC-257, 48 h
# [16] = tested on: IGROV-1; test: Cytotoxicity against human IGROV1 cells after 48 hrs by sulforhodamine B assay; assay type: functional; settings: IGROV-1, 48 h
# [17] = tested on: RXF 393; test: Cytotoxicity against human RXF393 cells after 48 hrs by sulforhodamine B assay; assay type: functional; settings: RXF 393, 48 h
# [18] = tested on: DU-145; test: Cytotoxicity against human DU145 cells after 48 hrs by sulforhodamine B assay; assay type: functional; settings: DU-145, 48 h
# [19] = tested on: MDA-MB-231; test: Cytotoxicity against human MDA-MB-231 cells after 48 hrs by sulforhodamine B assay; assay type: functional; settings: MDA-MB-231, 48 h
# [20] = tested on: T47D; test: Cytotoxicity against human T47D cells after 48 hrs by sulforhodamine B assay; assay type: functional
# [21] = tested on: MDA-MB-468; test: Cytotoxicity against human MDA-MB-468 cells after 48 hrs by sulforhodamine B assay; assay type: functional; settings: MDA-MB-468, 48 h
# [22] = read-out: LC50 (the source's name)
# [23] = read-out: pLC50 (the source's name) (converted)
compound,measurement,setting,value
O=C(Nc1nonc1-c1ccc(Cl)cc1)c1ccc(C(F)(F)F)cc1,inhibition,[1],72%
same,inhibition,[2],10.5%
same,GI50,[3]; read-out: GI50,1.67 µM
same,CC50,[3]; [22],> 100 µM
same,TGI,[3]; read-out: TGI,6.05 µM
same,GI50,[3]; read-out: pGI50 (converted),1.66 µM
same,CC50,[3]; [23],> 100 µM
same,TGI,[3]; read-out: pTGI (converted),6.03 µM
same,GI50,[4]; read-out: GI50,2.85 µM
same,CC50,[4]; [22],> 100 µM
same,TGI,[4]; read-out: TGI,10.6 µM
same,GI50,[4]; read-out: pGI50 (converted),2.82 µM
same,CC50,[4]; [23],> 100 µM
same,TGI,[4]; read-out: pTGI (converted),10.7 µM
same,GI50,[5]; read-out: GI50,2.53 µM
same,CC50,[5]; [22],> 100 µM
same,TGI,[5]; read-out: TGI,> 100 µM
same,GI50,[5]; read-out: pGI50 (converted),2.51 µM
same,CC50,[5]; [23],> 100 µM
same,TGI,[5]; read-out: pTGI,> 100 µM
same,GI50,[6]; read-out: GI50,3.4 µM
same,CC50,[6]; [22],> 100 µM
same,TGI,[6]; read-out: TGI,33.6 µM
same,GI50,[6]; read-out: pGI50 (converted),3.39 µM
same,CC50,[6]; [23],> 100 µM
same,TGI,[6]; read-out: pTGI (converted),33.9 µM
same,GI50,[7]; read-out: GI50,2.93 µM
same,CC50,[7]; [22],> 100 µM
same,TGI,[7]; read-out: TGI,8.74 µM
same,GI50,[7]; read-out: pGI50 (converted),2.95 µM
same,CC50,[7]; [23],> 100 µM
same,TGI,[7]; read-out: pTGI (converted),8.71 µM
same,GI50,[8]; read-out: GI50,0.668 µM
same,CC50,[8]; [22],> 100 µM
same,TGI,[8]; read-out: TGI,3.96 µM
same,GI50,[8]; read-out: pGI50 (converted),0.661 µM
same,CC50,[8]; [23],> 100 µM
same,TGI,[8]; read-out: pTGI (converted),3.98 µM
same,GI50,[9]; read-out: GI50,1.78 µM
same,CC50,[9]; [22],> 100 µM
same,TGI,[9]; read-out: TGI,> 100 µM
same,GI50,[9]; read-out: pGI50 (converted),1.78 µM
same,CC50,[9]; [23],> 100 µM
same,TGI,[9]; read-out: pTGI,> 100 µM
same,GI50,[10]; read-out: GI50,2.17 µM
same,CC50,[10]; [22],> 100 µM
same,GI50,[10]; read-out: pGI50 (converted),2.19 µM
same,CC50,[10]; [23],> 100 µM
same,GI50,[11]; read-out: GI50,3.38 µM
same,CC50,[11]; [22],> 100 µM
same,TGI,[11]; read-out: TGI,> 100 µM
same,GI50,[11]; read-out: pGI50 (converted),3.39 µM
same,CC50,[11]; [23],> 100 µM
same,TGI,[11]; read-out: pTGI,> 100 µM
same,GI50,[12]; read-out: GI50,2.19 µM
same,LC50,[12]; read-out: LC50,> 100 µM
same,TGI,[12]; read-out: TGI,> 100 µM
same,GI50,[12]; read-out: pGI50 (converted),2.19 µM
same,LC50,[12]; read-out: pLC50 (converted),> 100 µM
same,TGI,[12]; read-out: pTGI,> 100 µM
same,GI50,[13]; read-out: GI50,0.872 µM
same,LC50,[13]; read-out: LC50,> 100 µM
same,TGI,[13]; read-out: TGI,57 µM
same,GI50,[13]; read-out: pGI50 (converted),0.871 µM
same,LC50,[13]; read-out: pLC50 (converted),> 100 µM
same,TGI,[13]; read-out: pTGI (converted),57.5 µM
same,GI50,[14]; read-out: GI50,2.04 µM
same,CC50,[14]; [22],> 100 µM
same,TGI,[14]; read-out: TGI,> 100 µM
same,GI50,[14]; read-out: pGI50 (converted),2.04 µM
same,CC50,[14]; [23],> 100 µM
same,TGI,[14]; read-out: pTGI,> 100 µM
same,GI50,[15]; read-out: GI50,2.17 µM
same,LC50 (50% lethal concentration),[15]; read-out: LC50,> 100 µM
same,TGI,[15]; read-out: TGI,9.02 µM
same,GI50,[15]; read-out: pGI50 (converted),2.19 µM
same,LC50 (50% lethal concentration),[15]; read-out: pLC50 (converted),> 100 µM
same,TGI,[15]; read-out: pTGI (converted),9.12 µM
same,GI50,[16]; read-out: GI50,4.72 µM
same,LC50,[16]; read-out: LC50,> 100 µM
same,TGI,[16]; read-out: TGI,> 100 µM
same,GI50,[16]; read-out: pGI50 (converted),4.68 µM
same,LC50,[16]; read-out: pLC50 (converted),> 100 µM
same,TGI,[16]; read-out: pTGI,> 100 µM
same,GI50,[17]; read-out: GI50,2.21 µM
same,CC50,[17]; [22],> 100 µM
same,TGI,[17]; read-out: TGI,6.07 µM
same,GI50,[17]; read-out: pGI50 (converted),2.24 µM
same,CC50,[17]; [23],> 100 µM
same,TGI,[17]; read-out: pTGI (converted),6.03 µM
same,GI50,[18]; read-out: GI50,3.48 µM
same,CC50,[18]; [22],> 100 µM
same,TGI,[18]; read-out: TGI,> 100 µM
same,GI50,[18]; read-out: pGI50 (converted),3.47 µM
same,CC50,[18]; [23],> 100 µM
same,TGI,[18]; read-out: pTGI,> 100 µM
same,GI50,[19]; read-out: GI50,2.79 µM
same,LC50,[19]; read-out: LC50,> 100 µM
same,TGI,[19]; read-out: TGI,7.59 µM
same,GI50,[19]; read-out: pGI50 (converted),2.82 µM
same,LC50,[19]; read-out: pLC50 (converted),> 100 µM
same,TGI,[19]; read-out: pTGI (converted),7.59 µM
same,GI50,[20]; read-out: GI50,3.13 µM
same,CC50,[20]; [22],> 100 µM
same,TGI,[20]; read-out: TGI,> 100 µM
same,GI50,[20]; read-out: pGI50 (converted),3.16 µM
same,CC50,[20]; [23],> 100 µM
same,TGI,[20]; read-out: pTGI,> 100 µM
same,GI50,[21]; read-out: GI50,3.36 µM
same,LC50,[21]; read-out: LC50,> 100 µM
same,TGI,[21]; read-out: TGI,27 µM
same,GI50,[21]; read-out: pGI50 (converted),3.39 µM
same,LC50,[21]; read-out: pLC50 (converted),> 100 µM
same,TGI,[21]; read-out: pTGI (converted),26.9 µM
